According to patent publication US9113629B2, “4-amino-6-(4-substituted-phenyl)-picolinates and 6-amino-2-(4-substituted-phenyl)-pyrimidine-4-carboxylates and their use as herbicides” (DOW AGROSCIENCES LLC, priority 2013, dated 2015):
Like-named read-outs stand apart in the source and are kept apart here.

Columns and labels:
[1] = test system: Key Grass and Sedge Weeds as well as Grass Crops; assay: Post-emergent Test II herbicidal activity (Table 6); assay type: in vivo; settings: post-emergence, 336 h; for pest or weed control at 70 g/ha: 70 g ai/ha; for pest or weed control at 140 g/ha: 140 g ai/ha
Method in brief: (§1)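 Greenhouse-grown plants at first or second true leaf stage were sprayed post-emergence with compound in acetone/DMSO-based aqueous spray containing crop oil concentrate and surfactant, at 187 L/ha, highest rate plus ½× to 1/16× dilutions. After 14 d, injury was scored visually versus untreated plants, 0 (none) to 100% (complete kill).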

[2] = test system: Key Broadleaf Weed and Crop Species; assay: Post-emergent Test II herbicidal activity (Table 5); assay type: in vivo; settings: post-emergence, 336 h, 14 days after application; for pest or weed control at 70 g/ha: application rate 70 g ai/ha; for pest or weed control at 140 g/ha: application rate 140 g ai/ha
Method in brief: as §1

[3] = CYPES: yellow nutsedge (Cyperus esculentus), read-out: Visual Growth Reduction (%) 14 Days After Application, CYPES
[4] = DIGSA: crabgrass (Digitaria sanguinalis), read-out: Visual Growth Reduction (%) 14 Days After Application, DIGSA
[5] = ECHCG: barnyardgrass (Echinochloa crus-galli), read-out: Visual Growth Reduction (%) 14 Days After Application, ECHCG
[6] = ORYSA: rice (Oryza sativa), crop, read-out: Visual Growth Reduction (%) 14 Days After Application, ORYSA
[7] = SETFA: giant foxtail (Setaria faberi), read-out: Visual Growth Reduction (%) 14 Days After Application, SETFA
[8] = SORVU: grain sorghum (Sorghum vulgare), read-out: Visual Growth Reduction (%) 14 Days After Application, SORVU
[9] = TRZSS (wheat, Triticum aestivum), crop, read-out: Visual Growth Reduction (%) 14 Days After Application, TRZSS
[10] = ZEAMX: maize, corn (Zea mays), crop, read-out: Visual Growth Reduction (%) 14 Days After Application, ZEAMX
[11] = ABUTH: velvetleaf (Abutilon theophrasti), read-out: Visual Growth Reduction (%) 14 Days After Application, ABUTH
[12] = AMARE: redroot pigweed (Amaranthus retroflexus), read-out: Visual Growth Reduction (%) 14 Days After Application, AMARE
[13] = BRSNN: oilseed-rape, canola (Brassica napus), read-out: Visual Growth Reduction (%) 14 Days After Application, BRSNN
[14] = CHEAL: lambsquarters (Chenopodium album), read-out: Visual Growth Reduction (%) 14 Days After Application, CHEAL
[15] = EPHHL: wild poinsettia (Euphorbia heterophylla), read-out: Visual Growth Reduction (%) 14 Days After Application, EPHHL
[16] = HELAN: sunflower (Helianthus annuus), read-out: Visual Growth Reduction (%) 14 Days After Application, HELAN
[17] = VIOTR: wild pansy (Viola tricolor), read-out: Visual Growth Reduction (%) 14 Days After Application, VIOTR

SMILES: COC(=O)c1nc(-c2ccc(OC(F)F)c(F)c2F)c(F)c(N)c1Cl [Compound 103]
- pest or weed control at 70 g/ha [1, 3]: 0 to 29%
- pest or weed control at 140 g/ha [1, 3]: 45 to 59%
- pest or weed control at 70 g/ha [1, 4]: 0 to 29%
- pest or weed control at 140 g/ha [1, 4]: 0 to 29%
- pest or weed control at 70 g/ha [1, 5]: 0 to 29%
- pest or weed control at 140 g/ha [1, 5]: 0 to 29%
- pest or weed control at 70 g/ha [1, 6]: 0 to 29%
- pest or weed control at 140 g/ha [1, 6]: 0 to 29%
- pest or weed control at 70 g/ha [1, 7]: 0 to 29%
- pest or weed control at 140 g/ha [1, 7]: 0 to 29%
- pest or weed control at 70 g/ha [1, 8]: 0 to 29%
- pest or weed control at 140 g/ha [1, 8]: 0 to 29%
- pest or weed control at 70 g/ha [1, 9]: 0 to 29%
- pest or weed control at 140 g/ha [1, 9]: 0 to 29%
- pest or weed control at 70 g/ha [1, 10]: 0 to 29%
- pest or weed control at 140 g/ha [1, 10]: 0 to 29%
- pest or weed control at 70 g/ha [2, 11]: 45 to 59%
- pest or weed control at 140 g/ha [2, 11]: 45 to 59%
- pest or weed control at 70 g/ha [2, 12]: 0 to 29%
- pest or weed control at 140 g/ha [2, 12]: 0 to 29%
- pest or weed control at 70 g/ha [2, 13]: 0 to 29%
- pest or weed control at 140 g/ha [2, 13]: 30 to 44%
- pest or weed control at 70 g/ha [2, 14]: 0 to 29%
- pest or weed control at 140 g/ha [2, 14]: 85 to 94%
- pest or weed control at 70 g/ha [2, 15]: 0 to 29%
- pest or weed control at 140 g/ha [2, 15]: 0 to 29%
- pest or weed control at 70 g/ha [2, 16]: 75 to 84%
- pest or weed control at 140 g/ha [2, 16]: 75 to 84%
- pest or weed control at 70 g/ha [2, 17]: 0 to 29%
- pest or weed control at 140 g/ha [2, 17]: 0 to 29%
